Results on 56 compounds are retold here after PubChem BioAssay AID602275 (The Scripps Research Institute Molecular Screening Center, 2012).

Test [1] deals with NS3h 1b[con1]. The test is described as follows: HCV NS3 helicase inhibition across viral strains, late-stage follow-up, selectivity assay for HCV NS3 helicase inhibitor project, biochemical, real-time fluorescence, strains con1 and JFH1, set 3 (AID 602275). The settings on record: Recombinant NS3h, real-time fluorescence helicase unwinding.
For test [2], the target named is NS3h 2a[JFH1]. The description is as above. The settings on record: Recombinant NS3h, real-time fluorescence helicase unwinding.

“And” between values parts separate entries of the source, which are not always exact repeats. Equal entries are not always repeated. The source made the active and inactive calls. No rule for the calls is given here.

A word on the IC50: it is the concentration at which inhibition is half-maximal. In the case of `Cc1ccc2nc(-c3ccc4nc(-c5ccc(NC(=O)c6ccc(C(F)(F)F)cc6)cc5)sc4c3)sc2c1S(=O)(=O)O`, the IC50 in test [1] is 1.8 µM; in test [2] it was 2.3 µM.

As to `O=C(Nc1nc2ccc(Br)cc2s1)c1ccc2ncsc2c1`, the outcome in test [1] and in test [2] was inactive.

As to `Cc1ccc2nc(-c3ccc(NC(=O)c4ccc(NS(=O)(=O)c5ccccc5)cc4)cc3)sc2c1S(=O)(=O)O`, the outcome in test [1] and in test [2] was inactive.

On to `NS(=O)(=O)c1ccc2nc(NC(=O)c3ccc4ncsc4c3)sc2c1`, for which the IC50 in test [1] is 37.9 µM and 40.5 µM; in test [2], 6 µM and 15.7 µM.

For the compound `Cc1ccc2nc(-c3ccc4nc(-c5ccc(NC(=O)c6ccc(N(C)C)cc6)cc5)sc4c3)sc2c1S(=O)(=O)O`, the IC50 in test [1] was 11 µM; in test [2] it was 6 µM.

Regarding `Cc1ccc2nc(-c3ccc4nc(-c5ccc(NC(=O)c6c(F)cccc6C(F)(F)F)cc5)sc4c3)sc2c1S(=O)(=O)O`, the IC50 in test [1] is 16.8 µM. Further, in test [2], the IC50 entry is “inactive”.

In the case of `Cc1ccc2nc(-c3ccc4nc(-c5ccc6nc(-c7ccc(N)cc7)sc6c5)sc4c3)sc2c1S(=O)(=O)O`, the figures for the IC50 in test [1] and in test [2] were 0.9 µM and 0.6 µM, respectively.

Take `O=C(Nc1ccc(-c2nc3ccccc3[nH]2)cc1)c1ccc2ncsc2c1`: the IC50 in test [1] is 25.2 µM; in test [2], 24.3 µM.

Turning to `CS(=O)(=O)c1ccc2nc(NC(=O)c3ccc4ncsc4c3)sc2c1`, the concentration for half-maximal inhibition (IC50) in test [1] is 26.8 µM; in test [2], 21.3 µM.

As for `Cc1ccc2nc(-c3ccc4nc(-c5ccc(NC(=O)c6cccnc6)cc5)sc4c3)sc2c1S(=O)(=O)O`, in test [2], the IC50 was 28.3 µM.

`COc1ccc(S(=O)(=O)Nc2ccc(-c3nc4ccc(-c5nc6ccc(C)c(S(=O)(=O)O)c6s5)cc4s3)cc2)cc1`: the IC50 is 24.4 µM in test [1] and 13.4 µM in test [2].

In the case of `COc1ccc(C(=O)Nc2ccc(-c3nc4ccc(-c5nc6ccc(C)c(S(=O)(=O)O)c6s5)cc4s3)cc2)cc1`, the IC50 in test [1] was 10 µM; in test [2] it was 5.4 µM.

In the case of `Cc1ccc2nc(-c3ccc4nc(-c5ccc(NC(=S)Nc6ccccc6)cc5)sc4c3)sc2c1S(=O)(=O)O`, the IC50 was 9.3 µM in test [1] and 9.6 µM in test [2].

`Cc1ccc2nc(-c3ccc4nc(-c5ccc(NS(=O)(=O)c6ccc(C(F)(F)F)cc6)cc5)sc4c3)sc2c1S(=O)(=O)O`: the values for the IC50 in test [1] and in test [2] were 32 µM and 35 µM, respectively.

Regarding `COc1ccc2sc(NC(=O)c3ccc4ncsc4c3)nc2c1`, the outcome in test [1] and in test [2] was inactive.

Regarding `COc1cccc2c(=O)c3cc(Cl)cc(C(=O)Nc4cc(Cl)ccn4)c3[nH]c12`, the IC50 in test [1] was 27.5 µM; in test [2], 25.3 µM.

`Cc1ccc2nc(-c3ccc(N)cc3)sc2c1S(=O)(=O)O`: the IC50 result in test [1] was “inactive”. The IC50 in test [2] is 21.1 µM.

With `Cc1ccc2nc(-c3ccc4nc(-c5ccc(NCc6ccccc6)cc5)sc4c3)sc2c1S(=O)(=O)O`, the IC50 in test [1] is 11 µM; in test [2], 13.5 µM.

As to `Cc1ccc2nc(-c3ccc4nc(-c5ccc(NC(=O)c6ccc(Br)cc6)cc5)sc4c3)sc2c1S(=O)(=O)O`, the IC50 in test [1] was 5.2 µM; in test [2] it was 7.4 µM.

In the case of `Cc1ccc2nc(-c3ccc4nc(-c5ccc(NC(=O)c6ccccc6C(F)(F)F)cc5)sc4c3)sc2c1S(=O)(=O)O`, the IC50 is 14.1 µM in test [1] and 24.3 µM in test [2].

With `Cc1ccc2nc(-c3ccc4nc(-c5ccc(NC(=O)Nc6ccc(C(F)(F)F)cc6)cc5)sc4c3)sc2c1S(=O)(=O)O`, the IC50 is 5.1 µM in test [1] and 4 µM in test [2].

Consider `O=C(CCCCCCC(=O)Nc1ccc(-c2nc3ccccc3[nH]2)cc1)Nc1ccc(-c2nc3ccccc3[nH]2)cc1`, for which the IC50 in test [1] was 7.5 µM; in test [2], 4.7 µM.

With `Cc1ccc2nc(-c3ccc4nc(-c5ccc(NC(=O)c6ccccc6)cc5)sc4c3)sc2c1S(=O)(=O)O`, the IC50 is 10.7 µM in test [1] and 4.6 µM in test [2].

As for `COC(=O)c1ccc(C(=O)Nc2ccc(-c3nc4ccc(-c5nc6ccc(C)c(S(=O)(=O)O)c6s5)cc4s3)cc2)cc1`, the IC50 in test [1] is 9.7 µM; in test [2], 2.4 µM.

Turning to `Cc1ccc2nc(-c3ccc4nc(-c5ccc(NC(=O)c6ccc(C(F)(F)F)c(F)c6)cc5)sc4c3)sc2c1S(=O)(=O)O`, the results for the IC50 in test [1] and in test [2] were 17.4 µM and 13 µM, respectively.

In the case of `Cc1ccc2nc(-c3ccc4nc(-c5ccc(NC(=O)c6ccc(Cl)c(Cl)c6)cc5)sc4c3)sc2c1S(=O)(=O)O`, the IC50 in test [1] was 3.7 µM; in test [2], 4.5 µM.

Regarding `Cc1ccc2nc(-c3ccc4nc(-c5ccc(NC(=O)c6ccc7ccccc7c6)cc5)sc4c3)sc2c1S(=O)(=O)O`, the IC50 in test [1] is 2.7 µM and 3.6 µM; in test [2] it was 2.2 µM and 4.4 µM.

For `Cc1ccc2nc(-c3ccc4nc(-c5ccc(NC(=O)c6cccc(C(F)(F)F)c6F)cc5)sc4c3)sc2c1S(=O)(=O)O`, the IC50 in test [1] is 9.2 µM; in test [2], 8.1 µM.

Turning to `Cc1ccc2nc(-c3ccc4nc(-c5ccc(NC(=O)c6cc(C(F)(F)F)cc(C(F)(F)F)c6)cc5)sc4c3)sc2c1S(=O)(=O)O`, the IC50 in test [2] is 28.7 µM.

On to `Cc1ccc2nc(-c3ccc4nc(-c5ccc(NC(=O)c6ccncc6)cc5)sc4c3)sc2c1S(=O)(=O)O`, for which the IC50 result in test [2] was “inactive”.

As for `Cc1ccc2nc(-c3ccc4nc(-c5ccc(NC(=O)c6cccc(C(F)(F)F)c6)cc5)sc4c3)sc2c1S(=O)(=O)O`, the figures for the half-inhibitory concentration (IC50) in test [1] and in test [2] were 19.7 µM and 15.9 µM, respectively.

`Cc1cc2sc(-c3ccc(N)cc3)nc2cc1S(=O)(=O)O`: in test [1], the outcome was inactive. The IC50 entry in test [2] is “inactive”.

As for `Cc1ccc(NC(=O)Nc2ccc(-c3nc4ccc(-c5nc6ccc(C)c(S(=O)(=O)O)c6s5)cc4s3)cc2)cc1`, the concentration for half-maximal inhibition (IC50) in test [1] was 5.3 µM; in test [2], 4 µM.

In the case of `Cc1ccc2nc(-c3ccc(NC(=O)c4ccc(NC(=O)c5ccc(C(F)(F)F)cc5)cc4)cc3)sc2c1S(=O)(=O)O`, the IC50 is 10.4 µM in test [1] and 14.7 µM in test [2].

With `Cc1ccc2nc(-c3ccc4nc(-c5ccc(NC(=O)c6cc(F)cc(C(F)(F)F)c6)cc5)sc4c3)sc2c1S(=O)(=O)O`, the IC50 is 28.4 µM in test [1] and 15.8 µM in test [2].

Consider `Cc1ccc(C(=O)Nc2ccc(-c3nc4ccc(-c5nc6ccc(C)c(S(=O)(=O)O)c6s5)cc4s3)cc2)cc1`, for which the results for the IC50 in test [1] and in test [2] were 3.3 µM and 2.5 µM, respectively.

Consider `Cc1cc2sc(-c3ccc4nc(-c5ccc(N)cc5)sc4c3)nc2cc1S(=O)(=O)O`, for which the IC50 in test [1] was 7 µM; in test [2], 3.9 µM.

For the compound `Cc1ccc2nc(-c3ccc(NC(=S)Nc4ccccc4Br)cc3)sc2c1`, the outcome in test [1] was inactive. Besides, in test [2], the IC50 result was “inactive”.

As for `Cc1ccc2nc(-c3ccc4nc(-c5ccc(NC(=O)c6ccc(N)cc6)cc5)sc4c3)sc2c1S(=O)(=O)O`, the figures for the half-maximal inhibitory concentration (IC50) in test [1] and in test [2] were 10.3 µM and 5.3 µM, respectively.

Take `Cc1ccc2nc(-c3ccc4nc(-c5ccc6nc(-c7ccc(N)cc7)sc6c5)sc4c3)sc2c1S(=O)(=O)O` (tested in a mixture with another compound): the IC50 in test [1] was 12.8 µM; in test [2] it was 5.3 µM.

As to `CCN(CC)c1ccc(-c2nc3ccc(-c4nc5ccc(C)c(S(=O)(=O)O)c5s4)cc3s2)cc1`, the IC50 is 4.6 µM in test [1] and 4.7 µM in test [2].

Turning to `Cc1ccc2nc(-c3ccc4nc(-c5ccc(NC(=O)c6ccc7nc(-c8ccc(N)cc8)sc7c6)cc5)sc4c3)sc2c1S(=O)(=O)O`, the IC50 in test [1] was 5.5 µM; in test [2] it was 3.2 µM.

Regarding `Cc1ccc2nc(-c3ccc4nc(-c5ccc(NC(=O)Nc6ccccc6)cc5)sc4c3)sc2c1S(=O)(=O)O`, the IC50 is 4.1 µM in test [1] and 6 µM in test [2].

On to `Cc1ccc2nc(-c3ccc4nc(NC(=O)c5ccc6ncoc6c5)sc4c3)sc2c1`, for which the IC50 entry in test [1] and in test [2] was “inactive” each time.

Regarding `CN1CCN(Cc2cc(CN3CCN(C)CC3)c(O)c(=O)c(CN3CCN(C)CC3)c2)CC1`, the IC50 is 24 µM in test [1] and 18.9 µM in test [2].

For the compound `COc1ccc(NC(=O)Nc2ccc(-c3nc4ccc(-c5nc6ccc(C)c(S(=O)(=O)O)c6s5)cc4s3)cc2)cc1`, the IC50 is 4.8 µM in test [1] and 6.4 µM in test [2].

As for `Cc1ccc2nc(-c3ccc4nc(-c5ccc(NC(=O)c6ccc7nc(-c8ccc(NC(=O)OCC9c%10ccccc%10-c%10ccccc%109)cc8)sc7c6)cc5)sc4c3)sc2c1S(=O)(=O)O`, the 50% inhibitory concentration (IC50) in test [1] is 4 µM and 28.9 µM; in test [2], 1.7 µM and 0.8 µM.

Regarding `Cc1ccc2nc(-c3ccc4nc(-c5ccc(NC(=O)c6cccc7ccccc67)cc5)sc4c3)sc2c1S(=O)(=O)O`, the 50% inhibitory concentration (IC50) was 4.5 µM in test [1] and 3.9 µM in test [2].

Regarding `Cc1ccc2nc(-c3ccc4nc(-c5ccc(N(C)C(=O)c6ccc7ccccc7c6)cc5)sc4c3)sc2c1S(=O)(=O)O`, the IC50 is 14.4 µM in test [1] and 13.5 µM in test [2].

In the case of `Cc1ccc2nc(-c3ccc4nc(-c5ccc(NC(=O)c6cccc(Cl)c6)cc5)sc4c3)sc2c1S(=O)(=O)O`, the IC50 in test [1] was 2.6 µM; in test [2], 3.9 µM.

As to `Cc1ccc2nc(-c3ccc4nc(-c5ccc(NC(=O)c6cc(C(F)(F)F)ccc6F)cc5)sc4c3)sc2c1S(=O)(=O)O`, the IC50 is 6.4 µM in test [1] and 6.7 µM in test [2].

In the case of `Cc1ccc2nc(-c3ccc(NC(=O)c4ccc(NC(=O)c5ccccc5)cc4)cc3)sc2c1S(=O)(=O)O`, the IC50 entry in test [1] and in test [2] was “inactive” each time.

For `CC(=O)Nc1ccc(-c2nc3ccc(-c4nc5ccc(C)c(S(=O)(=O)O)c5s4)cc3s2)cc1`, the result in test [1] and in test [2] was inactive.

In the case of `Cc1cc(C(O)(c2ccc(Nc3ccccc3)cc2)c2ccc(Nc3ccc(S(=O)(=O)O)cc3)cc2)ccc1N` (centres undefined), the IC50 in test [1] is 28.6 µM; in test [2], 16.8 µM.

For `Cc1ccc2nc(-c3ccc4nc(-c5ccc(NC(=O)Nc6ccc(F)cc6)cc5)sc4c3)sc2c1S(=O)(=O)O`, the IC50 was 7.8 µM in test [1] and 9.9 µM in test [2].

Turning to `Cc1ccc2c(sc(-c3ccc4c(c3)sc(-c3ccc5c(c3)sc(-c3ccc(N(C)C)cc3)[n+]5C)[n+]4C)[n+]2C)c1S(=O)(=O)O` (tested in a mixture with another compound), the IC50 in test [1] is 23.8 µM; in test [2], 15.6 µM.
